In US9273341B2, “Methods for treatment of bacterial infections” (THE JOHNS HOPKINS UNVIERSITY, priority 2010, dated 2016):
In brackets after ≈: the same amount, converted by molar mass. Entries after “also recorded” stand apart in the source; their conditions may differ.

Columns and labels:
[1] = system: M. tuberculosis lacking LdtMt2 (ldtMt2::Tn); design: species or system Balb/C mice; details: mouse, in vivo
[2] = system: M. tuberculosis mutant strain lacking LdtMt2 (ldtMt2::Tn); format: cell-based
LdtMt2 [3] = biological target: T1, LdtMt2 (Mycobacterium tuberculosis, UniProt O53223); format: binding, M. tuberculosis
T1 construct: initiator methionine from the pET2818 ATG codon (N); made in house; host or cells: E. coli BL21(DE3) harboring pREP4GroESL and pET2818 with the ldtMt2 fragment
T1 sequence (O53223 55-408): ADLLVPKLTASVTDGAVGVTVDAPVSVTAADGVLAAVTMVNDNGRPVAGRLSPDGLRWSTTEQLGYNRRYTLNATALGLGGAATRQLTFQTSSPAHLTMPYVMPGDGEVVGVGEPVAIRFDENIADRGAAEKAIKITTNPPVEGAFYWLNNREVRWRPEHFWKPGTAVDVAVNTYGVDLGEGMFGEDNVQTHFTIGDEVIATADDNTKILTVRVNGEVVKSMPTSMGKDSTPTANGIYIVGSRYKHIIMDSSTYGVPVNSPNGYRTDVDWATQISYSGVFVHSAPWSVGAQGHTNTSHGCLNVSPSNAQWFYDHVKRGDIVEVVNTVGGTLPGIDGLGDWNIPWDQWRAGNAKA

LdtMt2 [4] = biological target: T1, LdtMt2; format: biochemical, M. tuberculosis

SMILES	formation of covalent adducts with LdtMt2 (LdtMt2 [3])	concentration up to which LdtMt2 was not inhibited (LdtMt2 [4])	further results
NNC(=O)c1ccncc1 [isoniazid]	–	–	bacterial burden (lung CFU) under treatment [1]: similarly effective
N[C@@H]1CON=C1O [D-cycloserine]	–	–	MIC [2]: 5 mg/L (≈ 49 µM)
CO/N=C(\C(=O)N[C@@H]1C(=O)N2C(C(=O)O)=C(CSc3nc(=O)c(=O)[nH]n3C)CS[C@H]12)c1csc(N)n1 [ceftriaxone]	Adducts were not detected; also recorded: No adduct was detected	> 360 µM	–
CC1(C)S[C@@H]2[C@H](NC(=O)[C@H](N)c3ccccc3)C(=O)N2[C@H]1C(=O)O [ampicillin]	Adducts were not detected; also recorded: No adduct was detected	> 5,700 μM	–
C[C@@H](O)[C@H]1C(=O)N2C(C(=O)O)=C(S[C@@H]3CN[C@H](C(=O)Nc4cccc(C(=O)O)c4)C3)[C@H](C)[C@H]12 [ertapenem]	formation of covalent adducts	–	–
C[C@@H](O)[C@H]1C(=O)N2C(C(=O)O)=C(S[C@@H]3CN[C@H](C(=O)N(C)C)C3)[C@H](C)[C@H]12 [meropenem]	formation of covalent adducts	–	–
